Measured values taken from PubChem BioAssay (NCI).
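The concentration for 50% growth inhibition is given as GI50. At the TGI there is no net growth.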

Key:
Experiment in all cases: DTP human tumour cell line panel, 384-well format
[1] = test system: TK-10 renal
[2] = test system: MALME-3M melanoma
[3] = test system: BT-549 breast
[4] = test system: NCI-H460 NSCLC
[5] = test system: OVCAR-3 ovarian
[6] = test system: A549 NSCLC
[7] = test system: NCI-H522 lung
[8] = test system: NCI-H322M lung
[9] = test system: HOP-92 NSCLC
[10] = test system: EKVX NSCLC
[11] = test system: HCT-116 colon
[12] = test system: HL-60(TB) leukemia
[13] = test system: RPMI-8226 leukemia
[14] = test system: A498 renal
[15] = test system: RXF 393 renal
[16] = test system: SK-OV-3 ovarian
[17] = test system: MCF7 breast
[18] = test system: PC-3 prostate
[19] = test system: HS 578T breast
[20] = test system: SK-MEL-2 melanoma
[21] = test system: OVCAR-4 ovarian
[22] = test system: 786-0 renal
[23] = test system: MDA-MB-468 breast
[24] = test system: MOLT-4 leukemia
[25] = test system: HOP-62 NSCLC
[26] = test system: IGROV1 ovarian
[27] = test system: KM12 colon
[28] = test system: MDA-MB-435 melanoma
[29] = test system: SW-620 colon
[30] = test system: CAKI-1 renal
[31] = test system: SF-295 CNS
[32] = test system: SF-539 CNS
[33] = test system: DU-145 prostate
[34] = test system: SNB-75 CNS
[35] = test system: SK-MEL-28 melanoma
[36] = test system: LOX IMVI melanoma
[37] = test system: NCI-H226 lung
[38] = test system: OVCAR-5 ovarian
[39] = test system: HCT-15 colon
[40] = test system: T-47D breast
[41] = test system: SK-MEL-5 melanoma
[42] = test system: UACC-62 melanoma
[43] = test system: SR leukemia
[44] = test system: HT29 colon

How did the GI50 [1] turn out when Cc1nc2c(-c3cnc(N)nc3)nc(N3CCOCC3)nc2n1C(C)C was run?
The GI50 was 54.9 nM.

And the TGI [1]?
Its TGI is 465 nM.

What about the GI50 [2] of the same compound?
The GI50 was 44.3 nM.

And the TGI [2]?
The TGI was 262 nM.

What about the GI50 [3] of the same compound?
Its GI50 is 95.3 nM.

What about the TGI [3] of the same compound?
Its TGI is 469 nM.

What about the GI50 [4] of the same compound?
Its GI50 is 39 nM.

What about the TGI [4] of the same compound?
Its TGI is > 100000 nM.

And the GI50 [5]?
The GI50 was 107 nM.

What about the TGI [5] of the same compound?
The TGI was 713 nM.

What about the GI50 [6] of the same compound?
Its GI50 is 108 nM.

And the TGI [6]?
Its TGI is 3600 nM.

And the GI50 [7]?
Its GI50 is 92.2 nM.

And the TGI [7]?
The TGI was 941 nM.

What about the GI50 [8] of the same compound?
The GI50 was 125 nM.

What about the TGI [8] of the same compound?
The TGI was 50500 nM.

And the GI50 [9]?
The GI50 was 67.5 nM.

And the TGI [9]?
Its TGI is 435 nM.

And the GI50 [10]?
Its GI50 is 86.6 nM.

What about the TGI [10] of the same compound?
The TGI was 380 nM.

What about the GI50 [11] of the same compound?
The GI50 was 479 nM.

What about the TGI [11] of the same compound?
Its TGI is > 100000 nM.

And the GI50 [12]?
Its GI50 is 156 nM.

And the TGI [12]?
The TGI was 1040 nM.

What about the GI50 [13] of the same compound?
Its GI50 is 59.6 nM.

And the TGI [13]?
The TGI was 252 nM.

And the GI50 [14]?
The GI50 was 55.9 nM.

And the TGI [14]?
The TGI was 322 nM.

What about the GI50 [15] of the same compound?
The GI50 was 78.9 nM.

What about the TGI [15] of the same compound?
The TGI was 379 nM.

What about the GI50 [16] of the same compound?
Its GI50 is 92.7 nM.

And the TGI [16]?
Its TGI is 430 nM.

And the GI50 [17]?
The GI50 was 36 nM.

What about the TGI [17] of the same compound?
Its TGI is > 100000 nM.

What about the GI50 [18] of the same compound?
Its GI50 is 52.8 nM.

What about the TGI [18] of the same compound?
The TGI was > 100000 nM.

And the GI50 [19]?
The GI50 was 66.1 nM.

And the TGI [19]?
The TGI was 273 nM.

What about the GI50 [20] of the same compound?
Its GI50 is 566 nM.

What about the TGI [20] of the same compound?
Its TGI is 941 nM.

What about the GI50 [21] of the same compound?
Its GI50 is 118 nM.

What about the TGI [21] of the same compound?
Its TGI is 803 nM.

And the GI50 [22]?
The GI50 was 246 nM.

And the TGI [22]?
The TGI was 5940 nM.

And the GI50 [23]?
Its GI50 is 65.9 nM.

What about the TGI [23] of the same compound?
The TGI was 351 nM.

And the GI50 [24]?
Its GI50 is 61.8 nM.

And the TGI [24]?
The TGI was 344 nM.

What about the GI50 [25] of the same compound?
The GI50 was 158 nM.

And the TGI [25]?
Its TGI is 13000 nM.

What about the GI50 [26] of the same compound?
The GI50 was 21.8 nM.

And the TGI [26]?
Its TGI is 133 nM.

What about the GI50 [27] of the same compound?
The GI50 was 270 nM.

And the TGI [27]?
Its TGI is > 100000 nM.

And the GI50 [28]?
Its GI50 is 184 nM.

What about the TGI [28] of the same compound?
The TGI was 845 nM.

What about the GI50 [29] of the same compound?
The GI50 was 460 nM.

What about the TGI [29] of the same compound?
The TGI was > 100000 nM.

What about the GI50 [30] of the same compound?
The GI50 was 75.1 nM.

And the TGI [30]?
The TGI was 581 nM.

And the GI50 [31]?
The GI50 was 79.1 nM.

And the TGI [31]?
Its TGI is 431 nM.

What about the GI50 [32] of the same compound?
The GI50 was 167 nM.

And the TGI [32]?
Its TGI is 1120 nM.

What about the GI50 [33] of the same compound?
The GI50 was 149 nM.

And the TGI [33]?
The TGI was > 100000 nM.

And the GI50 [34]?
The GI50 was 35.5 nM.

What about the TGI [34] of the same compound?
Its TGI is 220 nM.

What about the GI50 [35] of the same compound?
The GI50 was 153 nM.

And the TGI [35]?
Its TGI is 969 nM.

What about the GI50 [36] of the same compound?
Its GI50 is 232 nM.

What about the TGI [36] of the same compound?
Its TGI is 860 nM.

And the GI50 [37]?
Its GI50 is 122 nM.

What about the TGI [37] of the same compound?
Its TGI is 2390 nM.

And the GI50 [38]?
Its GI50 is 190 nM.

And the TGI [38]?
The TGI was > 100000 nM.

What about the GI50 [39] of the same compound?
The GI50 was 76.1 nM.

What about the TGI [39] of the same compound?
Its TGI is > 100000 nM.

What about the GI50 [40] of the same compound?
The GI50 was 31.3 nM.

And the TGI [40]?
Its TGI is 166 nM.

And the GI50 [41]?
The GI50 was 87.8 nM.

And the TGI [41]?
Its TGI is 337 nM.

What about the GI50 [42] of the same compound?
The GI50 was 147 nM.

What about the TGI [42] of the same compound?
The TGI was 847 nM.

What about the GI50 [43] of the same compound?
Its GI50 is 195 nM.

And the TGI [43]?
The TGI was 619 nM.

What about the GI50 [44] of the same compound?
The GI50 was 191 nM.

And the TGI [44]?
The TGI was > 100000 nM.
